Results on 20 molecules are retold here after PubChem BioAssay (NCI).

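Compound exposure: 48 hours, 5 concentrations, 96-well plates. GI50: concentration for 50% inhibition of growth. TGI: total growth inhibition.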 Bounds are passed on as bounds.

The test system of the first experiment is COLO 205 colon. Briefly: NCI-60 cell line screen, 48 h.
With `CC(=O)OCCc1cccnc1/C=N/O`, the TGI was greater than 100 µM.

On to `Cc1c(Cl)cccc1Nc1ncccc1C(=O)O`, for which the GI50 was 93.7 µM and the TGI is greater than 100 µM.

For the molecule `CN(C)c1ccc(/C=C2\C[N+](C)(C)C/C(=C\c3ccc(N(C)C)cc3)C2=O)cc1`, the TGI stood at 8.36 µM.

On to `C#CC(C)(C)Oc1cc(O)c2c(=O)c3ccccc3n(C)c2c1`, for which the TGI was greater than 100 µM.

`COc1cc2c(NCCCCCCO[N+](=O)[O-])ncnc2c(OC)c1OC` gave a TGI of 51.6 µM.

Take `CN1CCCNCCN(CCc2ccccn2)CCCN(C)CC1`: the TGI was greater than 62.8 µM.

Molecule `N#Cc1cnn2ccn(C3OC(COC(=O)c4ccccc4)C(OC(=O)c4ccccc4)C3OC(=O)c3ccccc3)c12` (stereo not given) came in with a TGI greater than 21.5 µM.

`OC(c1cccc(C(F)(F)F)c1)c1cnccc1NC1CCCCCC1` (stereo not given): the GI50 is 1.73 µM and the TGI was 3.37 µM.

`N#Cc1c(O)c2c(c(O)c1C#N)C(=O)c1ccccc1C2=O`: the GI50 is 1.78 µM and the TGI was found to be 4.13 µM.

Regarding `CN=C1NC(=O)/C(=C/c2ccc3ncccc3c2)S1`, the GI50 is 7.45 µM and the TGI was greater than 25 µM.

As to `O=[N+]([O-])c1ccc(NSc2ccccc2)cc1`, the TGI is greater than 100 µM.

Take `Cc1c(C(=O)/C=C/c2cccc3ccccc23)[n+](=O)c2ccccc2n1[O-]`: the TGI came to 26.9 µM.

`CC(=O)/C=C/c1cccc(N=S)c1` yielded a TGI greater than 48 µM.

Molecule `O=C1/C(=C/c2ccccc2)CN(C(=O)Oc2ccc(Cl)cc2)C/C1=C\c1ccccc1` displayed a TGI of 9.53 µM.

`CC1=C[C@@H]2Cc3occc3C(C)(C)[C@@H]2CC1` gave a TGI of 33.7 µM.

Regarding `CC1=C2[C@@H](CC1)[C@]1(C)O[C@@](C(C)C)(C[C@H]1OC(=O)[C@H](C)O)[C@H]2OC(=O)/C=C/c1ccccc1`, the GI50 was 16.9 µM and the TGI was 36.2 µM.

Molecule `CN(C)c1ccc2c(c1)oc(=O)c1ccccc12` showed a TGI of 24.7 µM.

In the case of `CN1CCN(Cc2ccc(NC(=O)c3cncc(C#Cc4cnc(N)c5ccccc45)c3)cc2C(F)(F)F)CC1`, the GI50 is 0.405 µM and the TGI stood at 0.948 µM.

In the case of `NS(=O)(=O)c1ccc(-n2nc(-c3ccc(Br)cc3)ccc2=O)cc1`, the GI50 was greater than 10 µM and the TGI was greater than 10 µM.

Consider `S=C1NCCN1C1=Nc2ccccc2CO1`, for which the GI50 is greater than 100 µM and the TGI was greater than 100 µM.

In a further experiment the test system is NCI-H522 lung. Description: NCI-60 cell line screen, 48 h.
Molecule `CC(=O)OCCc1cccnc1/C=N/O` yielded a TGI greater than 100 µM.

In the case of `Cc1c(Cl)cccc1Nc1ncccc1C(=O)O`, the GI50 was 81.2 µM and the TGI is greater than 100 µM.

In turn, `CN(C)c1ccc(/C=C2\C[N+](C)(C)C/C(=C\c3ccc(N(C)C)cc3)C2=O)cc1` gave a TGI of 26.2 µM.

For the molecule `C#CC(C)(C)Oc1cc(O)c2c(=O)c3ccccc3n(C)c2c1`, the TGI was greater than 100 µM.

Consider `COc1cc2c(NCCCCCCO[N+](=O)[O-])ncnc2c(OC)c1OC`, for which the TGI is 52.9 µM.

Molecule `CN1CCCNCCN(CCc2ccccn2)CCCN(C)CC1` registered a TGI greater than 100 µM.

`N#Cc1cnn2ccn(C3OC(COC(=O)c4ccccc4)C(OC(=O)c4ccccc4)C3OC(=O)c3ccccc3)c12` (stereo not given) yielded a TGI greater than 21.5 µM.

In the case of `OC(c1cccc(C(F)(F)F)c1)c1cnccc1NC1CCCCCC1` (stereo not given), the GI50 is 1.65 µM and the TGI worked out at 3.56 µM.

As to `N#Cc1c(O)c2c(c(O)c1C#N)C(=O)c1ccccc1C2=O`, the GI50 was 2 µM and the TGI turned out to be 5.92 µM.

As to `CN=C1NC(=O)/C(=C/c2ccc3ncccc3c2)S1`, the GI50 was 3.28 µM and the TGI was greater than 25 µM.

For the molecule `O=[N+]([O-])c1ccc(NSc2ccccc2)cc1`, the TGI is 39.4 µM.

`Cc1c(C(=O)/C=C/c2cccc3ccccc23)[n+](=O)c2ccccc2n1[O-]`: the TGI is 19.8 µM.

On to `CC(=O)/C=C/c1cccc(N=S)c1`, for which the TGI is greater than 53.7 µM.

`O=C1/C(=C/c2ccccc2)CN(C(=O)Oc2ccc(Cl)cc2)C/C1=C\c1ccccc1` showed a TGI of 5.51 µM.

Molecule `CC1=C[C@@H]2Cc3occc3C(C)(C)[C@@H]2CC1` displayed a TGI of 28.6 µM.

On to `CC1=C2[C@@H](CC1)[C@]1(C)O[C@@](C(C)C)(C[C@H]1OC(=O)[C@H](C)O)[C@H]2OC(=O)/C=C/c1ccccc1`, for which the GI50 is 13.3 µM and the TGI was 29.1 µM.

In turn, `CN(C)c1ccc2c(c1)oc(=O)c1ccccc12` gave a TGI of 20.9 µM.

As to `CN1CCN(Cc2ccc(NC(=O)c3cncc(C#Cc4cnc(N)c5ccccc45)c3)cc2C(F)(F)F)CC1`, the GI50 was 0.367 µM and the TGI was 0.967 µM.

Regarding `NS(=O)(=O)c1ccc(-n2nc(-c3ccc(Br)cc3)ccc2=O)cc1`, the GI50 is 2.09 µM and the TGI is greater than 10 µM.

For `S=C1NCCN1C1=Nc2ccccc2CO1`, the GI50 was greater than 100 µM and the TGI was greater than 100 µM.

The next experiment deals with SR leukemia. Briefly: NCI-60 cell line screen, 48 h.
The molecule `CC(=O)OCCc1cccnc1/C=N/O` returned a TGI greater than 100 µM.

On to `Cc1c(Cl)cccc1Nc1ncccc1C(=O)O`, for which the GI50 is greater than 100 µM and the TGI is greater than 100 µM.

`CN(C)c1ccc(/C=C2\C[N+](C)(C)C/C(=C\c3ccc(N(C)C)cc3)C2=O)cc1`: the TGI was found to be 36.6 µM.

Turning to `C#CC(C)(C)Oc1cc(O)c2c(=O)c3ccccc3n(C)c2c1`, the TGI amounted to 35.7 µM.

In turn, `COc1cc2c(NCCCCCCO[N+](=O)[O-])ncnc2c(OC)c1OC` had a TGI of 45.1 µM.

With `CN1CCCNCCN(CCc2ccccn2)CCCN(C)CC1`, the TGI came to 57.3 µM.

`N#Cc1cnn2ccn(C3OC(COC(=O)c4ccccc4)C(OC(=O)c4ccccc4)C3OC(=O)c3ccccc3)c12` (stereo not given) gave a TGI greater than 31.6 µM.

`OC(c1cccc(C(F)(F)F)c1)c1cnccc1NC1CCCCCC1` (stereo not given): the GI50 is 2.2 µM and the TGI came out at 6.51 µM.

Turning to `N#Cc1c(O)c2c(c(O)c1C#N)C(=O)c1ccccc1C2=O`, the GI50 is 1.82 µM and the TGI stood at 5.35 µM.

As to `CN=C1NC(=O)/C(=C/c2ccc3ncccc3c2)S1`, the GI50 is 2.14 µM and the TGI is 16.7 µM.
